Consider 9 compounds from ChEMBL document CHEMBL1124890 (J Med Chem, 1990).

Structures are written as SMILES. Numbered stars: 1 amine (or outer) side, 2 acyl side, 3 side chain; on linkers, the order of the positions; unused ones are H or OH. Square brackets hold non-standard residues; d marks the D form. Peptide text beside a SMILES is read from it. X6 = CN(C)C[C@H]1C=NN([*:1])[C@H](C(=O)[*:2])C1; X5 = O=C1CC[C@@H](C(=O)[*:2])N([*:1])N1; dPiz(1,6-dehydro) = O=C(O)[C@H]1CCC=NN1; X2 = CN1CCC[C@@H](C(=O)[*:2])N1[*:1]; X1 = CN1CCC[C@H](C(=O)[*:2])N1[*:1]; X7 = O=C([C@@H]1C=CC=NN1[*:1])[*:2]; X4 = O=C([C@@H]1CCCNN1[*:1])[*:2]; X3 = O=C([C@H]1CCCNN1[*:1])[*:2]; dNMeF = CN[C@H](Cc1ccccc1)C(=O)O Bounds are passed on as bounds.

One experiment has as its target Vasopressin V2 receptor (Rattus norvegicus, UniProt Q00788). Nature of the experiment: Binding affinity against Vasopressin receptor in rat kidney medulla.
Another experiment deals with T1, Oxytocin receptor (Rattus norvegicus, UniProt P70536).
T1 sequence (P70536 whole entry): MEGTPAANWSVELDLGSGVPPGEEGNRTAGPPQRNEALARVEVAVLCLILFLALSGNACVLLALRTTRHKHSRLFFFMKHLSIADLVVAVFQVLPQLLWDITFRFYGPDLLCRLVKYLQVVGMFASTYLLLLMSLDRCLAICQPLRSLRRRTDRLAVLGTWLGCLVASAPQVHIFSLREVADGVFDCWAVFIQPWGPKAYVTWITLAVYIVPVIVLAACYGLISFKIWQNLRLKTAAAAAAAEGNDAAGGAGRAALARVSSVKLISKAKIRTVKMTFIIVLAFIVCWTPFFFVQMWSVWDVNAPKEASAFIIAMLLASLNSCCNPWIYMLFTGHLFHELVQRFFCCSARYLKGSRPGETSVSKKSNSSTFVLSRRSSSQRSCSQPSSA
The experiment can be described thus: Binding affinity against oxytocin receptor in rat uterus.

Vasopressin V2 receptor, sequence (Q00788 whole entry): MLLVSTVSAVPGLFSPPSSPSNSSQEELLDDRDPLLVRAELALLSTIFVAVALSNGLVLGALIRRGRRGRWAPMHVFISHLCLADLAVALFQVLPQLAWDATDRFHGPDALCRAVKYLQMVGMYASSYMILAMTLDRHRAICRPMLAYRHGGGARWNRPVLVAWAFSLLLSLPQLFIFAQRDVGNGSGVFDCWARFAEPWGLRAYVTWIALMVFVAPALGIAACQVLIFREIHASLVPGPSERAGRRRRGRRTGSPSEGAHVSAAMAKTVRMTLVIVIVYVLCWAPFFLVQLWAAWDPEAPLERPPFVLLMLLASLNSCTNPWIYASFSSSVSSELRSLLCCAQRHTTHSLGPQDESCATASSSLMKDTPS

Take `CC[C@@H](C)[C@@H]1/N=C(\S)[C@@H](Cc2ccccc2)NC(=O)[C@@H]2CCCN2C(=O)[C@@H](Cc2ccccc2)N(C)C(=O)[C@@H]2CCC=NN2C(=O)[C@H]2CCC=NN2C1=O`: the figures for the Ki on Vasopressin V2 receptor and on Oxytocin receptor were 0.07 µM and 0.0011 µM, respectively.
Taken in the same sequence, the figures for `CC[C@H](C)[C@H]1C(=O)N2NCCC[C@@H]2C(=O)N2NCCC[C@H]2C(=O)N(C)[C@H](Cc2ccccc2)C(=O)N2CCC[C@H]2C(=O)N[C@H](Cc2ccccc2)C(=O)N1O` were 3.4 µM and 0.15 µM.
The matching figures for `CC[C@H](C)[C@@H]1NC[C@@H](Cc2ccccc2)NC(=O)[C@@H]2CCCN2C(=O)[C@@H](Cc2ccccc2)N(C)C(=O)[C@@H]2CCC=NN2C(=O)[C@H]2CCC=NN2C1=O`: 30 µM and over 30 µM.
Taken in the same sequence, the figures for `CC[C@H](C)[C@@H]1NC(=O)[C@@H](Cc2ccccc2)NC(=O)[C@@H]2CCCN2C(=O)[C@@H](Cc2ccccc2)N(C)C(=O)[C@@H]2CCCN(C)N2C(=O)[C@H]2CCCN(C)N2C1=O` (cyclo(I[X1][X2][dNMeF]P[dF])) were 3.1 µM and 2.5 µM.
Take `CC[C@H](C)[C@@H]1NC(=O)[C@@H](Cc2ccccc2)NC(=O)[C@@H]2CCCN2C(=O)[C@@H](Cc2ccccc2)N(C)C(=O)[C@@H]2CCC(=O)NN2C(=O)[C@H]2CCCNN2C1=O` (cyclo(I[X3][X5][dNMeF]P[dF])): the inhibition constant Ki – broadly, the dissociation constant of the complex between target and ligand, obtained from inhibition or displacement – turned out to be 7.8 µM at Vasopressin V2 receptor and 0.089 µM on Oxytocin receptor.
Taken in the same sequence, the figures for `CC[C@H](C)[C@@H]1NC(=O)[C@@H](Cc2ccccc2)NC(=O)[C@@H]2CCCN2C(=O)[C@@H](Cc2ccccc2)N(C)C(=O)[C@@H]2CCC(=O)NN2C(=O)[C@H]2CCC=NN2C1=O` (cyclo(I[dPiz(1,6-dehydro)][X5][dNMeF]P[dF])) were 6.8 µM and 0.0096 µM.
The matching figures for `CC[C@H](C)[C@@H]1NC(=O)[C@@H](Cc2ccccc2)NC(=O)[C@@H]2CCCN2C(=O)[C@@H](Cc2ccccc2)N(C)C(=O)[C@@H]2C[C@@H](CN(C)C)C=NN2C(=O)[C@H]2CCC=NN2C1=O` (cyclo(I[dPiz(1,6-dehydro)][X6][dNMeF]P[dF])): 1.1 µM and 0.0034 µM.
The matching figures for `CC[C@H](C)[C@@H]1NC(=O)[C@@H](Cc2ccccc2)NC(=O)[C@@H]2CCCN2C(=O)[C@@H](Cc2ccccc2)N(C)C(=O)[C@@H]2C=CC=NN2C(=O)[C@H]2CCC=NN2C1=O` (cyclo(I[dPiz(1,6-dehydro)][X7][dNMeF]P[dF])): 0.58 µM and 0.0081 µM.
As for `CC[C@H](C)[C@@H]1NC(=O)[C@@H](Cc2ccccc2)NC(=O)[C@@H]2CCCN2C(=O)[C@@H](Cc2ccccc2)N(C)C(=O)[C@@H]2CCCNN2C(=O)[C@H]2CCCNN2C1=O` (cyclo([X3][X4][dNMeF]P[dF]I)), the results for the Ki at Vasopressin V2 receptor and at Oxytocin receptor were 1.5 µM and 0.03 µM, respectively.
